Source: patent US9162975B2, “Phenyl carbamate compounds for use in alleviating or treating pain” (Bio-Pharm Solutions Co., Ltd., priority 2011, dated 2015)

Legend:
ICR mice = experiment: Writhing test (acetic acid); assay type: in vivo; conditions: Mus musculus, po, 1 h
Procedure: To examine the pain relief effect of the phenyl carbamate compounds, a writhing test was conducted in general pain animal model referring to Fischer, L. G. et al. (2008).
ICR mice (male, 24-28 g; Orient Bio, Korea) were habituated before test in test room for 1 hour Animals were fasted 2 hr, before administration of compounds. Each of Compound 1, 2, 3, 4, 5, 63, 65, and 67 was orally administered at the dose of 20 mg/kg, 10 ul/g, bw (n=3˜5/group). All compounds were dissolved in a vehicle of 30% (v/v) PEG 400 or 20% (v/v) Tween 80. The control group was treated the vehicle without compounds.
One hour after the administration of Compounds, 0.6% acetic acid at the dose of 10 ul/g, bw was injected into the mice. Animals were habituated in the cage for 5 min 5 min after habituation, the number of writhes (abdominal constriction) for 15 min was counted referring to Korzeniewska-Rybicka, I. et al. (1998) and compared with that of a control.

[1] = tested on: vincristine-induced pain model in rats; experiment: Antiallodynic activity on vincristine-induced pain model, von Frey; assay type: in vivo, Sprague-Dawley rats; conditions: 0.5 hr, paw withdrawal threshold relative to sham
Procedure: Male, Sprague-Dawley rats (300-320 g, Nara Bio, Korea) were habituated for 1 week before surgery and allowed free access to food and water throughout the experimentation. Room temperature and humidity were maintained at 24±2° C. and 50±10%, respectively.
Vincristine was established by the procedure of Natsuko et al. (2001) with minor modifications. Vincristine was intravenously infused continuously for 14 days using a mini-osmotic pump as follows. Vincristine sulfate solution (Hospira, Australia) was diluted with 0.9% saline to 30 ug/kg, final dose. The pumps (Alzet Model 2002, USA) were filled with the vincristine solution and primed by incubation at 37° C. for 4 h before the infusion. Briefly, animal under gaseous anesthesia with isoflurane a 4:4 flow ratio of NO2. […]
Tactile sensitivity (Mechanical allodynia) was evaluated using von Frey monofilaments before and after treatment, and animals were used withdrawal threshold value was less than 4 g. […] The tactile sensitivity for ipsilateral hind paw was measured using the up-and-down method (Dixon, 1980) with seven von Frey monofilaments (0.4, 1, 2, 4, 6, 8, and 15 g) to 3 trials. […] The 50% paw withdrawal threshold for each paw was calculated using the following formula: [Xth] log=[vFr] log+ky where [vFr] is the force of the last von Frey used, k=0.2249 which is the average interval (in log units) between the von Frey monofilaments, and y is a value that depends upon the pattern of withdrawal responses (Dixon, 1980).
Antiallodynic effect of compound of Example 1 was evaluated at the dose of 1, 5 and 10 mg/kg (n=6), intraperitoneally administrated in a volume of 5 ul/g, bw in a vehicle of 30% (v/v) PEG. […]
The relative values compared to the sham (% control) were calculated and shown in Table 6 and FIG. 6, which show an antiallodynic effect of Compound 1 on vincristine-induced pain model in rats.

[2] = tested on: CFA-induced pain model in rats; experiment: Antiallodynic activity on Complete Freund's Adjuvant (CFA)-induced inflammatory pain model, von Frey; assay type: in vivo, Sprague-Dawley rats; conditions: 0.5 hr, paw withdrawal threshold relative to sham
Procedure: Male, Sprague-Dawley rats (200-220 g, Nara Bio, Korea) were habituated for 1 week before surgery and allowed free access to food and water throughout the experimentation. Room temperature and humidity were maintained at 24±2° C. and 50±10%, respectively.
CFA-induced inflammatory pain was induced by the procedure of Nagakura et al. (2003) and Gregory P. et al. (2010) with minor modifications. CFA (sigma, USA) was injected in the right plantar with a 100 ul volume under gaseous anesthesia with isoflurane a 4:4 flow ratio of NO2. Sham controls were injected with 100 ul of saline and vehicle controls were identical to CFA infusion model, except for administration of vehicles.
Tactile sensitivity (Mechanical allodynia) was evaluated using von Frey monofilaments before and after treatment, and animals were used withdrawal threshold value was less than 4 g. One week after surgery, CFA-infused animals (n=4˜6), sham-operated animals (n=12), and vehicle-operated animals (n=17) were tested for tactile sensitivity with von Frey monofilaments 3 trials in each animal. All Animals were placed in a stainless steel mashed chamber and habituated for 30 min in the test box. The tactile sensitivity for ipsilateral hind paw was measured using the up-and-down method (Dixon, 1980) with seven von Frey monofilaments (0.4, 1, 2, 4, 6, 8, and 15 g) to 3 trials. […] The 50% paw withdrawal threshold for each paw was calculated using the following formula: [Xth] log=[vFr] log+ky where [vFr] is the force of the last von Frey used, k=0.2249 which is the average interval (in log units) between the von Frey monofilaments, and y is a value that depends upon the pattern of withdrawal responses (Dixon, 1980).
Antiallodynic effect of compound of Example 1 was evaluated at the dose of 10, 30 and 60 mg/kg (n=4˜6), intraperitoneally administrated in a volume of 5 ul/g bw in a vehicle of 30% (v/v) PEG. […]
The relative values compared to the sham (% control) were calculated and shown in Table 7 and FIG. 7, which show an antiallodynic effect of Compound 1 on CFA-induced pain model in rats.

[3] = dose 10 mg/kg intraperitoneally

SMILES: C[C@H](OC(N)=O)[C@@H](O)c1ccccc1Cl [Example 1, 1-(2-chlorophenyl)-(S)-1-hydroxypropyl-(S)-2-carbamate]
- ED50 (ICR mice): 14.1 mg/kg
- % Control (vincristine-induced pain model) ([1]; dose 1 mg/kg intraperitoneally): 20.7%
- % Control (vincristine-induced pain model) ([1]; dose 5 mg/kg intraperitoneally): 63.1%
- % Control (vincristine-induced pain model) [1, 3]: 71.7%
- % Control (CFA-induced pain model) [2, 3]: 12.5%
- % Control (CFA-induced pain model) ([2]; dose 30 mg/kg intraperitoneally): 40.0%
- % Control (CFA-induced pain model) ([2]; dose 60 mg/kg intraperitoneally): 73.7%
